In patent US7074770B1, “Method of DNA vaccination” (SmithKline Beecham Corporation, priority 1998, dated 2006):
Entries after “also recorded” stand apart in the source; their conditions may differ. Read-outs that look alike come from different tables or passages of the source.

Key:
S6C-E4 tumour cells = experiment: Tumour outgrowth inhibition in vivo after EBNA-4 plasmid immunisation; set-up: species or system ACA mice; conditions: i.m. 40 μg E4 x3, tucaresol 200 μg s.c. days 1-4; challenge with S6C-E4 s.c.; FIG. 7
Experimental: Groups of ACA mice were immunised three times with p3, E4 or E4,T, and were subsequently challenged with […] S6C tumour cells. Mice were sacrificed when tumour diameter reached 20 mm.
Epstein Barr virus has been implicated in some cancers. We analysed the effect of tucaresol on tumour outgrowth inhibition in vivo as a result of pDNA vaccination with a plasmid expressing EBNA-4 (FIG. 7). Mice were immunised by intramuscular injection with 40 μg of either control mock plasmid pCDNA3 (P3), plasmid expressing EBNA-4 (E4) or plasmid expressing EBNA-4 followed 1, 2, 3 and 4 days later with administration of 200 μg of tucaresol s.c.—i.e. 800 μg total tucaresol per mouse (E4T). This immunisation schedule was repeated 1 month and 2 months after the initial immunisation. Two weeks after the last immunisation mice were challenged with […] S6C-E4 tumour cells s.c. Mice were sacrificed when the tumour reached a 20 mm diameter.

CD4 Th-cells = conditions: previously reported (22); cited from earlier work
[1] = test system: EL4 cells pulsed with H-2 Db-restricted NP peptide; experiment: Lytic CTL response after gene gun NP DNA immunisation (europium release); format: in vivo, C57Bl/6 mice; conditions: gene gun NP plasmid 10 ng; tucaresol s.c. 1 mg or oral 15 mg/kg x5 days; FIG. 9
Experimental: C57B1/6 mice were immunised with plasmid DNA encoding the influenza virus nucleoprotein with or without tucaresol given subcutaneously (FIG. 9a) or orally (FIG. 9b). Splenocytes were restimulated in-vitro with A/PR8/34 virus. Standard europium release techniques were used to determine specific lysis of MHC matched target cells pulsed with H-2 D^b-restricted NP peptide.
C57BI/6 mice were immunised with plasmid DNA (10 ng) encoding the influenza virus nucleoprotein (NP) with and without tucaresol given sub-cutaneously (sc). Mice were killed 14 days post-immunisation and restimulated in-vitro (5 days) with irradiated splenocytes pulsed with virus (A/PR8/34). Standard europium release techniques were used to determine specific lysis of MHC-matched target cells (EL4 cells) pulsed with H-2 D^b-restricted NP peptide. Non-specific lysis was less than 15% for all controls. Tucaresol was given subcutaneously (1 mg) at the site of intrepidermal gene-gun immunisation.
C57B1/6 mice were immunised with plasmid DNA (10 ng) encoding the influenza virus nucleoprotein (NP) with and without tucaresol given orally. Mice were killed 14 days post-immunisation and restimulated in-vitro (5 days) with irradiated splenocytes pulsed with virus (A/PR8/34). Standard europium release techniques were used to determine specific lysis of EL4 cells pulsed with H-2D^b-restricted NP peptide. […]

[2] = test system: splenocytes re-stimulated with NP peptide; format: in vivo, C57BL/6 mice; conditions: pVAC1.PR gene gun
[3] = test system: mycobacterial hsp65 (M.hsp65); format: in vivo, mice
[4] = test system: Jk-A2/kb target cells pulsed with M.hsp65 peptide; format: in vivo, HLA A2 transgenic mice
[5] = test system: lymph node T cells (response to ovalbumin peptide); experiment: T-cell priming after gene gun DNA immunisation (pVAC1.Ova) with conventional adjuvants; format: in vivo, mice; conditions: gene gun pVAC1.Ova with or without adjuvants given s.c.; 3 days later
From the text: Proliferation of lymph node T cells in response to pDNA or DNA encoding ovalbumin (PVAC1.Ova) in isolation and in combination with adjuvants LPS, CFA, GM-CSF and Heat-Killed Listeria monocytogenes (HKLM).
Lymphoid cells from TCR-transgenic mice, expressing a receptor specific for an ovalbumin antigen were transferred into normal syngeneic mice. These mice were then immunised subcutaneously (by means of gene gun) with plasmid DNA (pVAC1) or with plasmid DNA construct encoding ovalbumin (pVAC1.Ova) with or without adjuvants given subcutaneously. Three days later, regional lymph node cells were removed and their proliferative response to ovalbumin peptide was measured by means of incorporation of tritiated thymidine into DNA. This provides a measure of the degree of specific T-cell priming that occurred in vivo in response to immunisation. […] However, in contrast to the conventional peptide immunisation, none of the adjuvants were able to enhance this response to DNA immunisation.

For O=Cc1c(O)cccc1OCc1ccc(C(=O)O)cc1 [tucaresol, 4-(2-formyl-3-hydroxyphenoxymethyl)benzoic acid], the tumour outgrowth inhibition (S6C-E4 tumour cells) is given as “significantly enhances; also recorded: markedly enhanced”, the “CD4 Th-cell response” value (CD4 Th-cells) is given as “enhanced CD4 Th-cell response, selectively favouring a Th 1-type profile over Th 2” and the “lytic CTL response (specific lysis)” value [1] is given as “Enhances”. The “CTL cytokine response (IFNγ positive cells per 10e6 splenocytes)” value ([2]; tucaresol oral gavage 15 mg/kg daily for 5 days) was “doubling of the response”, the “CTL cytokine response (IFNγ positive cells per 10e6 splenocytes)” value ([2]; tucaresol s.c. 2×1 mg at site of DNA vaccination) was “small but significant increase” and the “IgG2a anti-M.hsp65 antibody response (Th1 associated)” value ([3]; FIG. 3b) was “significantly (P=0.003) increased; also recorded: strongly enhanced”. For the same molecule, the “IgG1 anti-M.hsp65 antibody response (Th2 associated)” value ([3]; compared to p3 immunised mice, FIG. 3c) was “did also induce”, the “specific antibody response with control plasmid” value ([3]; control plasmid p3 and tucaresol (p3, T)) was “no increase in the specific antibody response” and the “anti-M.hsp65 antibody (IgG) titres” value ([3]; i.m. 20 μg p3M.65, tucaresol 1 mg s.c. simultaneously or cytokine plasmids equimolar, FIG. 3a) was “markedly increased; also recorded: comparable to the effect of the GM-CSF plasmid”. For the same molecule, the “CTL activity against target cells pulsed with the cognate M.hsp65 epitope” value ([4]; immunised twice, splenocytes stimulated with peptide, FIG. 6) was “high CTL activity; also recorded: markedly enhanced” and the “lytic activity against Jk-A2/kb cells unpulsed or pulsed with control influenza peptide” value ([4]; mouse, in vivo) was “much lower”.

B1: GM-CSF: GM-CSF given as adjuvant with DNA immunisation (protein, UniProt P01587 18-141, looked up)
Granulocyte-macrophage …: APTRSPITVTRPWKHVEAIKEALNLLDDMPVTLNEEVEVVSNEFSFKKLTCVQTRLKIFEQGLRGNFTKLKGALNMTASYYQTYCPPTPETDCETQVTTYADFIDSLKTFLTDIPFECKKPGQK
In the case of B1, the “T-cell priming in response to DNA immunisation” value [5] is reported as “failed to enhance the response”.
